The test system of series [1] is MDA-MB-231 (human breast cancer). Briefly: MTT cytotoxicity assay, MDA-MB-231. Type of series: cell-based. As to conditions: Homo sapiens, MDA-MB-231 cells, 50% cell growth inhibition after 72 h of drug exposure. The procedure: (§1) The cytotoxic activities of target compounds were evaluated against HT-29 (human colon cancer), MDA-MB-231 (human breast cancer), U87MG (human glioblastoma), H460 (human lung cancer), A549 (non-small-cell lung adenocarcinoma), HL-60 (human leukemic) cancer cell lines and one normal cell line WI-38 (human fetal lung fibroblasts) together with references DHA and cisplatin by a MTT assay.
(§2) The cytotoxic activities of compounds 3a–h and 6a–j were evaluated with the HT-29, MDA-MB-231, U87MG, H460, A549, HL-60 cancer cell lines and one normal cell line, WI-38, by the standard MTT assay in vitro [20], with DHA as the positive control. The cell lines were cultured in minimum essential medium (MEM) supplement with 10% fetal bovine serum (FBS). Approximately 4 × 10^3 cells, suspended in MEM medium, were plated on to each well of a 96-well plate and incubated in 5% CO2 at 37 °C for 24 h. The test compounds at indicated final concentrations were added to the culture medium and the cell cultures were continued for 72 h. Fresh MTT was added to each well at a terminal concentration of 5 μg/mL and incubated with cells at 37 °C for 4 h. The formazan crystals were dissolved in 100 μL DMSO each well, and the absorbency at 492 nm (for absorbance of MTT formazan) and 630 nm (for the reference wavelength) was measured with the ELISA reader. All of the compounds were tested twice in each of the cell lines. The results expressed as IC50 (inhibitory concentration 50%) were the averages of two determinations and calculated using the Bacus Laboratories Incorporated Slide Scanner (Bliss) software.

Series [2] deals with A549 (non-small-cell lung adenocarcinoma). Nature of the series: MTT cytotoxicity assay, A549. It counts as cell-based, human. Conditions: Homo sapiens, A549 cells, 50% cell growth inhibition after 72 h of drug exposure. The method, then:
as §1, §2

For series [3], the system named is U87MG (human glioblastoma). Nature of the series: MTT cytotoxicity assay, U87MG. Type of series: cell-based. Conditions: Homo sapiens, U-87 MG; U87MG cells, 50% cell growth inhibition after 72 h of drug exposure, MTT. The method, then:
as §1, §2

Another series has as its system H460 (human lung cancer). Nature of the series: MTT cytotoxicity assay, H460. Type of series: cell-based. As to conditions: Homo sapiens, NCI-H460; H460 cells, 50% cell growth inhibition after 72 h of drug exposure, MTT. The method, then:
as §1, §2

The subject of series [4] is WI-38 (human fetal lung fibroblasts). Briefly: MTT cytotoxicity assay, normal cell line WI-38. It counts as cell-based. Conditions: Homo sapiens, normal WI-38 cells, 50% cell growth inhibition after 72 h of drug exposure, read-out: IC50(μM) WI38. The method, then:
as §1, §2

Series [5] has as its system HT-29 (human colon cancer). Nature of the series: MTT cytotoxicity assay, HT-29. Type of series: cell-based. Conditions: Homo sapiens, HT-29 cells, 50% cell growth inhibition after 72 h of drug exposure, read-out: IC50(μM) HT29. The method, then:
as §1, §2

For a further series, the system named is HL-60 (human leukemic). Nature of the series: MTT cytotoxicity assay, HL-60. Conditions: Homo sapiens; HL-60 cells, 50% cell growth inhibition after 72 h of drug exposure, MTT. It counts as cell-based. The method, then:
as §1, §2

Each structure is given as a SMILES string.

The compound `C[C@@H]1CC[C@H]2[C@@H](C)C(OCCNC(=O)c3ccc(COc4ccc(/C=C/S(=O)(=O)Nc5cccc(Cl)c5)cc4)cc3)O[C@@H]3O[C@@]4(C)CC[C@@H]1[C@]32OO4` (stereo partly drawn) [Compound 6b, (E)-N-(2-(10β-Dihydroartemisinoxy)ethyl)-4((4-(2-(N-(3-chlorophenyl)sulfamoyl)vinyl)phenoxy)methyl)benzamide] had a melting point of 146 to 149 °C. This compound had a half-inhibitory concentration (IC50) in series [1] of 2.23 µM. In series [2], this compound had an IC50 of 2.86 µM. Inhibition in series [3] was half-maximal at 4.52 µM (IC50). Further, the IC50 in the series on H460 (human lung cancer) is 2.79 µM. In series [4], the IC50 worked out at 35.8 µM. Moreover, the IC50 in series [5] was 1.11 µM. In the series with HL-60 (human leukemic), the midpoint of inhibition, the IC50, lay at 1.81 µM.
With `Cc1ccc(F)c(NS(=O)(=O)/C=C/c2ccc(OCc3ccc(C(=O)NCCOC4O[C@@H]5O[C@@]6(C)CC[C@H]7[C@H](C)CC[C@@H]([C@H]4C)[C@@]57OO6)cc3)cc2)c1` (stereo partly drawn) [Compound 6d, (E)-N-(2-(10β-Dihydroartemisinoxy)ethyl)-4((4-(2-(N-(2-fluoro-5-methylphenyl)sulfamoyl)vinyl)phenoxy)methyl)benzamide], the melting point was in the range of 135 to 137 °C. The compound further had an IC50 in series [1] of 1.33 µM. The compound further yielded an IC50 in series [2] of 9.72 µM. The same compound registered a half-maximal inhibitory concentration (IC50) in series [3] of 17.2 µM. For the same compound, in the series with H460 (human lung cancer), it took 10.9 µM to reach half-maximal inhibition (IC50). For the same compound, the IC50 in series [4] stood at 19.3 µM. For the same compound, in series [5], the IC50 was determined as 1.82 µM. Further, the midpoint of inhibition in the series on HL-60 (human leukemic), the IC50, lay at 1.3 µM.
In turn, `Cc1ccccc1NS(=O)(=O)/C=C/c1ccc(OCc2ccc(C(=O)NCCOC3O[C@@H]4O[C@@]5(C)CC[C@H]6[C@H](C)CC[C@@H]([C@H]3C)[C@@]46OO5)cc2)cc1` (stereo partly drawn) [Compound 6e, (E)-N-(2-(10β-Dihydroartemisinoxy)ethyl)-4((4-(2-(N-(2-methylphenyl)sulfamoyl)vinyl)phenoxy)methyl)benzamide] had a melting point of 143 to 145 °C. The compound further had a half-maximal inhibitory concentration (IC50) in series [1] of 2.1 µM. Moreover, half-maximal inhibition in series [2] (IC50) required 5.47 µM. The same compound had an IC50 in series [3] of 3.65 µM. This compound registered an IC50 in the series on H460 (human lung cancer) of 1.92 µM. For the same compound, the IC50 in series [4] was 16.4 µM. In series [5], the IC50 worked out at 2.09 µM. The same compound yielded an IC50 with HL-60 (human leukemic) of 3.21 µM.
`C[C@@H]1CC[C@H]2[C@@H](C)C(OCCNC(=O)c3ccc(COc4ccc(/C=C/S(=O)(=O)Nc5ccc(Cl)cc5)cc4)cc3)O[C@@H]3O[C@@]4(C)CC[C@@H]1[C@]32OO4` (stereo partly drawn) [Compound 6f, (E)-N-(2-(10β-Dihydroartemisinoxy)ethyl)-4((4-(2-(N-(4-chlorophenyl)sulfamoyl)vinyl)phenoxy)methyl)benzamide] showed a melting point of 138 to 141 °C. In series [1], this compound came in with an IC50 of 2.38 µM. For the same compound, in series [2], the IC50 is 5.72 µM. Half-maximal inhibition in series [3] (IC50) required 1.59 µM. Also, the IC50 in the series with H460 (human lung cancer) worked out at 1.77 µM. Besides, the IC50 in series [4] came to 24.7 µM. Also, the IC50 in series [5] was determined as 0.92 µM. Moreover, in the series with HL-60 (human leukemic), the IC50 amounted to 1.33 µM.
In the case of `C[C@@H]1CC[C@H]2[C@@H](C)C(OCCNC(=O)c3ccc(COc4ccc(/C=C/S(=O)(=O)Nc5ccccc5Cl)cc4)cc3)O[C@@H]3O[C@@]4(C)CC[C@@H]1[C@]32OO4` (stereo partly drawn) [Compound 6g, (E)-N-(2-(10β-Dihydroartemisinoxy)ethyl)-4((4-(2-(N-(2-chlorophenyl)sulfamoyl)vinyl)phenoxy)methyl)benzamide], the melting point lay within 147 to 150 °C. For the same compound, the IC50 in series [1] came to 0.72 µM. Half-maximal inhibition in series [2] (IC50) required 5.31 µM. This compound also returned a half-maximal inhibitory concentration (IC50) in series [3] of 2.69 µM. The compound also yielded an IC50 with H460 (human lung cancer) of 0.89 µM. The IC50 in series [4] turned out to be 27.2 µM. Besides, the IC50 in series [5] was 0.45 µM. For the same compound, half-maximal inhibition in the series on HL-60 (human leukemic) (IC50) required 0.27 µM.
With `C[C@@H]1CC[C@H]2[C@@H](C)C(OCCNC(=O)c3ccc(COc4ccc(/C=C/S(=O)(=O)Nc5c(Cl)cccc5Cl)cc4)cc3)O[C@@H]3O[C@@]4(C)CC[C@@H]1[C@]32OO4` (stereo partly drawn) [Compound 6h, (E)-N-(2-(10β-Dihydroartemisinoxy)ethyl)-4((4-(2-(N-(2,6-dichlorophenyl)sulfamoyl)vinyl)phenoxy)methyl)benzamide], the melting point lay in the range of 151 to 153 °C. Also, the midpoint of inhibition in series [1], the IC50, lay at 0.88 µM. Also, the IC50 in series [2] stood at 2.34 µM. Moreover, in series [3], it took 3.12 µM to reach half-maximal inhibition (IC50). Also, inhibition with H460 (human lung cancer) was half-maximal at 1.21 µM (IC50). For the same compound, in series [4], the IC50 was found to be 23.5 µM. The half-inhibitory concentration (IC50) in series [5] stood at 0.44 µM. Also, 0.18 µM corresponded to half-maximal inhibition in the series with HL-60 (human leukemic) (IC50).
`COc1cccc(NS(=O)(=O)/C=C/c2ccc(OCc3ccc(C(=O)NCCOC4O[C@@H]5O[C@@]6(C)CC[C@H]7[C@H](C)CC[C@@H]([C@H]4C)[C@@]57OO6)cc3)cc2)c1` (stereo partly drawn) [Compound 6i, (E)-N-(2-(10β-Dihydroartemisinoxy)ethyl)-4((4-(2-(N-(3-methoxyphenyl)sulfamoyl)vinyl)phenoxy)methyl)benzamide] yielded a melting point of 144 to 145 °C. In series [1], this compound returned an IC50 of 8.89 µM. The 50% inhibitory concentration (IC50) in series [2] was found to be 11.3 µM. The compound further had an IC50 in series [3] of over 100 µM. Besides, 16.3 µM corresponded to half-maximal inhibition in the series on H460 (human lung cancer) (IC50). Besides, the IC50 in series [4] turned out to be 19.2 µM. Also, the IC50 in series [5] worked out at 8.95 µM. Also, the half-inhibitory concentration (IC50) in the series on HL-60 (human leukemic) is 8.53 µM.
In the case of `C[C@@H]1CC[C@H]2[C@@H](C)C(OCCNC(=O)c3ccc(COc4ccc(/C=C/S(=O)(=O)Nc5ccc(F)c(C(F)(F)F)c5)cc4)cc3)O[C@@H]3O[C@@]4(C)CC[C@@H]1[C@]32OO4` (stereo partly drawn) [Compound 6j, (E)-N-(2-(10β-Dihydroartemisinoxy)ethyl)-4((4-(2-(N-(3-trifluoromethyl-4fluorophenyl)sulfamoyl)vinyl)phenoxy)methyl)benzamide], the melting point was 152 to 154 °C. In series [1], this compound displayed an IC50 of 1.05 µM. In series [2], this compound had a concentration for half-maximal inhibition (IC50) of 2.78 µM. Half-maximal inhibition in series [3] (IC50) was put at 3.27 µM. This compound registered an IC50 in the series on H460 (human lung cancer) of 5.31 µM. In addition, the IC50 in series [4] amounted to 30.4 µM. Besides, the IC50 in series [5] came out at 0.38 µM. The compound also displayed an IC50 in the series with HL-60 (human leukemic) of 1.27 µM.

Source of the values: publication PMC6270595, “Synthesis and Cytotoxicity of Novel 10-Substituted Dihydroartemisinin Derivatives Containing N-Arylphenyl-ethenesulfonamide Groups” (Molecules, 2013).
